In paper PMC7217877, “N-AS-triggered SPMs are direct regulators of microglia in a model of Alzheimer’s disease” (Nature Communications, 2020):
“And” between values parts separate entries of the source, which are not always exact repeats. Equal values may be shown once.

Experiments:
[1] = tested on: 5×FAD mice; experiment: Iba1+ microglia and GFAP+ astrocyte quantification (Supplementary Fig 8d,e); type: in vivo, mouse
Protocol: Thioflavin S (Sigma-Aldrich) staining was carried out according to previously described procedures. We used 6E10 (mouse, 1:100, Signet, SIG39300), anti-20G10 (mouse, 1:1000, provided by D. R. Howlett, GlaxoSmithKline, Harlow, Essex, UK) for Aβ42, anti-G30 (rabbit, 1:1000, provided by D. R. Howlett) for Aβ40, SMA (mouse, 1:400, Sigma-Aldrich, A2547), AT8 (mouse, 1:500, Thermo Fisher Scientific, MN1020), Caspase-3 (mouse, 1:200, Novus Biologicals, NB100-56708), ac-S565 (rabbit, 1:100), COX2 (mouse, 1:250, Thermo Fisher Scientific, 35-8200), Iba1 (rabbit, 1:500, Wako, 019-19941 and goat, Abcam, ab5076), NeuN (mouse, 1:500, Millipore, MAB177), GFAP (rabbit, 1:500, Dako, N1506 and chicken, 1:500, Abcam, ab4674), and Lamp1 (mouse, 1:200, Abcam, ab24170). The sections were analyzed with a laser-scanning confocal microscope (FV3000; Olympus) or with a BX51 microscope (Olympus). MetaMorph software (Molecular Devices) was used to quantification. Three-dimensional reconstruction of microglia was recorded and analyzed using IMARIS software (Bitplane)[11]. For the analysis of age-dependent microglial COX2^+ CX3CR1^+ cells in WT and APP/PS1 mice, COX2 (rabbit, 1:100, Abcam, ab15191) and CX3CR1 (mouse, 1:100, BioLegend, 149008) antibody were used and the images were acquired on Alexa 488 and APC Channel with performed using Operetta CLS and Analysis Software 4.5 (Perkin-Elmer). […]

[2] = tested on: microglia; experiment: SphK activity in primary cells; type: cell-based, C57BL/6 mice; conditions: Ab 10mM, replicates
Protocol: We confirmed S1P formation through SphK1 enzymatic activity measurements as previously described[11] using a UPLC (Ultra performance liquid chromatography) system (Waters). […] After pre-incubation, 1 mM ATP (Amresco, 0220) was added the mixture, and it was incubated at 37 °C for 1 h. The […] reactions were stopped by adding 53 μl of ethanol, and centrifuged at 15,493×g for 5 min. Thirty microliter of the supernatant was then transferred to a sampling glass vial and 5 μl was applied onto a UPLC system for analysis. S1P formation was followed as phosphorylation of (7-nitro-2-1,3-benzoxadiazol-4-yl)-d-erythro (NBD)-sphingosine (Avanti Polar Lipids) to NBD-S1P. Quantification was achieved by comparison with NBD-S1P (Avanti Polar Lipids) standards.
To confirm the generation and roles of N-AS in neurons, cells from E18 C57BL/6 mice were prepared as previously described. Cortices were dissected and then dissociated followed by incubation in papain (Worthington) at 37 °C for 15 min. […] Aβ 1–42 (10 μM, 24 h, Invitrogen, 03112) was exposed to neurons and the cells were analyzed for the generation and roles of N-AS. […] The human microglia treated with Aβ 1–42 and/or zileuton was incubated with N-AS (2.5 μM, 2 h, Sigma-Aldrich, 01912), and were analyzed for the generation and roles of N-AS.

Compound | GFAP+ astrocyte ([1]; 5xFAD+N-AS, sFig 8e (sheet untitled)) | neuroinflammation ([1]; 5×FAD, N-AS 30 mg kg^-1 daily s.c. 4 weeks) | SphK activity (Fig 3d) [2]
CCCCCCCCCCCCC/C=C/[C@@H](O)[C@H](CO)NC(C)=O [N-AS, N-((2S,3R,E)-1,3-Dihydroxyoctadec-4-en-2-yl)acetamide] | 1.617 and 1.112 and 1.516 and 1.497 and 1.364 and 1.314 | similarly improved AD pathology of 5×FAD mice | –
Ab: Aβ 1–42 (Invitrogen, 03112) used to induce an AD environment in cells | – | – | 3.655 and 3.493 and 3.944 and 3.366 and 2.386 and 3.719
